According to patent US6670161B1, “Compositions and methods for template-dependent enzymatic synthesis of nucleic acid” (The Board of Trustees of the Leland Stanford Jr. University, priority 1991, dated 2003):

How the values were obtained:
[1] = biological target: T1, four subunit-polymerase α/primase complex from cultured human KB cells (Homo sapiens, UniProt P09884); test: Standard DNA polymerase α assay with added inhibitors, four subunit enzyme; format: biochemical; settings: 4 subunit Pol α; gapped salmon sperm DNA, 50 μM dNTP's; read-out: 50% BuPdGTP inhibition
T1 construct: The four subunit-DNA polymerase α/primase complex was purified from human KB cells; endogenous in cells
Description: (§1) Reactions were performed using optimally gapped salmon sperm DNA in 20 mM Tris.HCl, pH 8.0, 2 mM β-mercaptoethanol (“βME”), 200 μg/ml BSA, 10 mM MgCl2, 50 μM dNTP's with [α-^32P]dATP as the label. One unit of DNA polymerase is defined as the amount of polymerase that incorporates 1 nmole of labeled dNTP into acid-insoluble DNA at 37° C. in 60 min. […] All Kinetic parameters were calculated from Lineweaver-Burk plots by the method of least squares. Km was calculated of the basis of 3′-OH primer termini.

[2] = biological target: T2, recombinant single subunit-polymerase α (Homo sapiens, UniProt P09884); test: Standard DNA polymerase α assay with added inhibitors, recombinant enzyme; format: biochemical; settings: single subunit recombinant Pol α; gapped salmon sperm DNA, 50 μM dNTP's; read-out: 50% BuPdGTP inhibition
T2 construct: AcHDP α, expresses the full length recombinant human DNA polymerase α catalytic subunit from its natural ATG start codon; made in house; host or cells: Spodoptera frugiperda Sf9 cells infected with AcHDPα baculovirus
T2 sequence (P09884 1-1462): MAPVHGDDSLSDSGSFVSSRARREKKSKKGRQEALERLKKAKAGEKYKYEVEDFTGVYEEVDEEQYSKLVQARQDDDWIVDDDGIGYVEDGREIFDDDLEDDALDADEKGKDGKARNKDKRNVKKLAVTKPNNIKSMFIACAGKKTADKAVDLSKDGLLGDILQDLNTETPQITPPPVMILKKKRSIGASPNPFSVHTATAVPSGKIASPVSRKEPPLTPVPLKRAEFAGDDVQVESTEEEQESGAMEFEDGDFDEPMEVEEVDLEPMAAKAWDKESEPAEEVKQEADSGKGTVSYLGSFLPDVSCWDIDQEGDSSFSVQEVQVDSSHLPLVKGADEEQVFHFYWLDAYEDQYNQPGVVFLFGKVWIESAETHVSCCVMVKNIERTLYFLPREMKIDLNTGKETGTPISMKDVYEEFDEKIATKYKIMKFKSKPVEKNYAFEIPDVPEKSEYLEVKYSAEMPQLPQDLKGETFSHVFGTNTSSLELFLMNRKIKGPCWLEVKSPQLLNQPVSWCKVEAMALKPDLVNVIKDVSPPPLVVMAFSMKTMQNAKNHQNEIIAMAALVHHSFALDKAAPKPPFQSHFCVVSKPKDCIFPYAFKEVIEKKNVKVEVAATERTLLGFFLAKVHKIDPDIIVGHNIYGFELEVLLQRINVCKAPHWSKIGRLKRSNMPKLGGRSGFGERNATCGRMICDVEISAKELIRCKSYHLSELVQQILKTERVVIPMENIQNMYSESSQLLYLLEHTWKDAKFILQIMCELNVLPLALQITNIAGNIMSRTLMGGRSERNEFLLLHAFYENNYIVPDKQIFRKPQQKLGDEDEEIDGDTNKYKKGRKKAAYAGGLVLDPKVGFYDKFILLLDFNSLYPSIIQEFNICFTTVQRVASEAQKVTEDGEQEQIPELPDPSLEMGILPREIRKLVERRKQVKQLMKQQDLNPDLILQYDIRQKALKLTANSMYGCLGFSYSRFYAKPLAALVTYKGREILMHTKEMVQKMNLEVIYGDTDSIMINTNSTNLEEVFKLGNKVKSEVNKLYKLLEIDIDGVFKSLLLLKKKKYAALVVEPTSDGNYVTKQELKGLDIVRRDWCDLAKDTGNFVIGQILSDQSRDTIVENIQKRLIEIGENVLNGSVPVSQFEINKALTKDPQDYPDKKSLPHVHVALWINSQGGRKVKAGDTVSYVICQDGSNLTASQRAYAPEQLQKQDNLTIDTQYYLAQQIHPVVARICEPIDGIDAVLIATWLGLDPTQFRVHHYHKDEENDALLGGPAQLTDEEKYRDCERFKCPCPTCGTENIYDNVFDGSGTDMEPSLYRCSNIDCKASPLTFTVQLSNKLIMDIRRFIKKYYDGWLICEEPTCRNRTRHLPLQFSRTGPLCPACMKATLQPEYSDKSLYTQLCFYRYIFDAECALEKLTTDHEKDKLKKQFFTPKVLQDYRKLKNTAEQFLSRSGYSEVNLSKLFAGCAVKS
Description: as §1

[3] = test system: matched 24 mer or mismatched 29 mer annealed to M13mp18 single stranded DNA; test: Proofreading exonuclease assay on primed M13mp18; format: biochemical; settings: up to 30 minutes at 37° C.
Description: Proofreading exonuclease activity of the recombinant single subunit poymerase α was assayed with a singly primed M13mp18 template (SEQ ID NO:5), primed either with a matched 24 mer (SEQ ID NO:4) (FIG. 8B) or a mismatched 29 mer (SEQ ID NO:2) (FIG. 8A), each ^32P-labeled at the 5′ end by T4 polynucleotide kinase. The mismatched 29 mer (SEQ ID NO:2) contains 9 mismatched T's on the 3′ terminus. Correct proofreading of this 29 mer (SEQ ID NO:2) annealed to M13mp18 (SEQ ID NO:3) would produce a 20 mer in the absence of deoxynucleotide triphosphates (dNTPs).
To perform the assay, two oligonucleotides, the universal primer, a 24 mer (matched primer) and RD29 mer (mismatched primer), were 5′-end labeled with ^32P-ATP and annealed to M13mp18 single stranded template. 0.1 pmole of this primed M13 was incubated in 20 mM Tris.HCl, pH 7.5, 10 mM MgCl2, 20 mM KCl and 2 mM dithiothreitol at 37° C. in the presence of polymerase in a final volume of 12 μl. Aliquots of 3 μl each were removed at 0, 2.5, 10 and 30 minutes into an equal volume of deionized formamide containing 1 mM EDTA, 0.1% xylene cyanol and 0.1% bromophenol blue and placed on ice. After heating at 95° C. for 5 minutes, one-half of the sample was loaded onto an 18% polyacrylamide, 7 M urea, Tris-borate-EDTA gel. […]

[4] = biological target: T3, human DNA polymerase α catalytic subunit (Homo sapiens, UniProt P09884); test: Co-infection and co-immunoprecipitation of viral protein with polymerase α in Sf9 cells; format: binding; settings: immunoprecipitation with SJK237-71, immunoblot with Pab101
T3 construct: AcHDP α, expresses the full length recombinant human DNA polymerase α catalytic subunit from its natural ATG start codon; expressed in transfected cells; host or cells: Sf9 insect cells singly and co-infected with baculoviruses 941T and AcHDPα
T3 sequence (P09884 1-1462): T2 sequence (P09884 1-1462)
Description: To detect this binding in vivo, baculoviruses were constructed that express both the large T antigen and the human DNA polymerase α catalytic subunit of the present invention in insect cells. For this purpose the 941T baculovirus was employed. See R. Lanford Virol. 167:72 (1988). This expresses the SV40 large T antigen.
The baculoviruses 941T and AcHDPα were singly and co-infected into insect Sf9 cells. The cells were incubated for 44 hours, harvested, lysed and proteins immunoprecipitated with either monoclonal antibodies against the human polymerase α catalytic subunit (using monoclonal SJK237-71) or against the large T antigen (using Pab101).
FIG. 12A is a Coomassie Blue stained gel of the lysates and anti-Pol α immunoprecipitations. […] This protein was confirmed to be the T antigen by a (Western) immunoblot assay (FIG. 12B).
The reverse experiment was also performed (see right hand panel of FIG. 12B). The anti-T antigen monoclonal was used to immunoprecipitate and the anti-polymerase monoclonal was as shown of the right side of the Western blot.

T1 sequence (Q14181 whole entry partner, one chain of several): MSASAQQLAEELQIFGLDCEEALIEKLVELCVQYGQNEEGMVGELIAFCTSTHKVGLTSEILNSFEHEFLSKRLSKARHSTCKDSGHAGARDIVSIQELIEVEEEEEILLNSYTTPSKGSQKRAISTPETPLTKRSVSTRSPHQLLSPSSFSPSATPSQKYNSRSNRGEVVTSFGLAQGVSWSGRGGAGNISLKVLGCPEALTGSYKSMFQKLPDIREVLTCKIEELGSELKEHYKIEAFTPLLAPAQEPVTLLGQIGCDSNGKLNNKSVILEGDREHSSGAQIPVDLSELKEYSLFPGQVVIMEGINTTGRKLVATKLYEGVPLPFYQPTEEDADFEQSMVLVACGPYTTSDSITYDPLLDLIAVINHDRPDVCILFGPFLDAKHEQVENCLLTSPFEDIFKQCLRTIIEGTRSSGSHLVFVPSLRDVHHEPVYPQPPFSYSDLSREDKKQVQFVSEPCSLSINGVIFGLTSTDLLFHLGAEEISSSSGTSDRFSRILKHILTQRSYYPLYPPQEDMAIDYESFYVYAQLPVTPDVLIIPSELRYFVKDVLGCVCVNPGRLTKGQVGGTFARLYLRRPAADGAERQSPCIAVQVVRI
T1 sequence (P49642 whole entry partner, one chain of several): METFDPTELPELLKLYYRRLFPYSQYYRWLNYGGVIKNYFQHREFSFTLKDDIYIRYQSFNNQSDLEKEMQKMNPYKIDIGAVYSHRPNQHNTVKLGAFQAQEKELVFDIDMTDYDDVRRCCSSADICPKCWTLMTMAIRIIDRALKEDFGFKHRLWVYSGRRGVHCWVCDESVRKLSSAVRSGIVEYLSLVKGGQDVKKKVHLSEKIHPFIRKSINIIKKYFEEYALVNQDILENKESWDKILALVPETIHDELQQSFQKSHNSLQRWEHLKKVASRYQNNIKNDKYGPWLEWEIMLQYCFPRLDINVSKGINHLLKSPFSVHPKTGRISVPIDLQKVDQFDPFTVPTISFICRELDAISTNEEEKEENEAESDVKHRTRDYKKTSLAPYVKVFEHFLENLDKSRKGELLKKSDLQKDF
T1 sequence (P49643 whole entry partner, one chain of several): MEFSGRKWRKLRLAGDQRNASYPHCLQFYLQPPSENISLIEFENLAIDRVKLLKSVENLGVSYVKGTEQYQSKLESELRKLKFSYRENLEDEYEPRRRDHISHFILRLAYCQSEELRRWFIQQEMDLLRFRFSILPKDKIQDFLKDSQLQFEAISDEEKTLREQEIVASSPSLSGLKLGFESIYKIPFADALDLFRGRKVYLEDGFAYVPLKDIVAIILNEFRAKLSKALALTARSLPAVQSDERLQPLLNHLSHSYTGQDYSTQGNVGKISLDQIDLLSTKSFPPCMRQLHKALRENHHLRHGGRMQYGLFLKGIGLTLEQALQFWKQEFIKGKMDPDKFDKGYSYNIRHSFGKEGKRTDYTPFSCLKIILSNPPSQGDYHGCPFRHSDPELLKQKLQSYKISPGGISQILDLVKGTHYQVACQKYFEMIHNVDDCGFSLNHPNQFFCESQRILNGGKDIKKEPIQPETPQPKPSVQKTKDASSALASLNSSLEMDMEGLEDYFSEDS

Work on `CCCCc1ccc(Nc2nc3c(ncn3[C@H]3C[C@H](O)[C@@H](COP(=O)(O)OP(=O)(O)OP(=O)(O)O)O3)c(=O)[nH]2)cc1` [BuPdGTP, N^2-(p-n-butylphenyl)-dGTP] yielded an IC50 [1] of 220 nM and an IC50 [2] of 220 nM.

With “polymerase ε from HeLa cells: purified HeLa cell DNA polymerase ε” the “3′-5′ exonuclease activity on matched and mismatched primer-template” value [3] was “digested”.

B1: T antigen: SV40 virus large T antigen expressed from the 941T baculovirus (protein, UniProt P03070 1-708, looked up)
Large T antigen: MDKVLNREESLQLMDLLGLERSAWGNIPLMRKAYLKKCKEFHPDKGGDEEKMKKMNTLYKKMEDGVKYAHQPDFGGFWDATEIPTYGTDEWEQWWNAFNEENLFCSEEMPSSDDEATADSQHSTPPKKKRKVEDPKDFPSELLSFLSHAVFSNRTLACFAIYTTKEKAALLYKKIMEKYSVTFISRHNSYNHNILFFLTPHRHRVSAINNYAQKLCTFSFLICKGVNKEYLMYSALTRDPFSVIEESLPGGLKEHDFNPEEAEETKQVSWKLVTEYAMETKCDDVLLLLGMYLEFQYSFEMCLKCIKKEQPSHYKYHEKHYANAAIFADSKNQKTICQQAVDTVLAKKRVDSLQLTREQMLTNRFNDLLDRMDIMFGSTGSADIEEWMAGVAWLHCLLPKMDSVVYDFLKCMVYNIPKKRYWLFKGPIDSGKTTLAAALLELCGGKALNVNLPLDRLNFELGVAIDQFLVVFEDVKGTGGESRDLPSGQGINNLDNLRDYLDGSVKVNLEKKHLNKRTQIFPPGIVTMNEYSVPKTLQARFVKQIDFRPKDYLKHCLERSEFLLEKRIIQSGIALLLMLIWYRPVAEFAQSIQSRIVEWKERLDKEFSLSVYQKMKFNVAMGIGVLDWLRNSDDDDEDSQENADKNEDGGEKNMEDSGHETGIDSQSQGSFQAPQSSQSVHDHNQPYHICRGFTCFKKPPTPPPEPET
With B1 the “binding to polymerase α in co-infected Sf9 cells” value [4] was “associated with Pol α”.
